# Source: patent publication US10035800B2 (AbbVie Inc., priority 2013, dated 2018)
# How the values were obtained:
# BRD4 (BDI_K57-E168) = molecular target: T1, BRD4 (BDI_K57-E168) (Homo sapiens, UniProt O60885); assay: TR-FRET bromodomain binding assay, first bromodomain of BRD4; settings: 100 nM probe
# T1 construct: BD1: amino acids K57-E168; made in house
# Description: (§1) Bromodomain Domain Binding Assay
# (§2) A time-resolved fluorescence resonance energy transfer (TR-FRET) assay was used to determine the affinities of compounds of the Examples listed in Table 1 for each bromodomain of BRD4. His-tagged first (BD1: amino acids K57-E168) and second (BD2: amino acids […]) bromodomains of BRD4 were expressed and purified. An Alexa647-labeled BET-inhibitor was used as the fluorescent probe in the assay.
# (§3) Compound dilution series were prepared in DMSO via an approximately 3-fold serial dilution from one of the following: […]
# (§4) Assay method E: 0.47 mM to 7.8 nM […]
# (§5) Assay method G: 0.047 mM to 0.78 nM
# (§6) or 5-fold serial dilution from one of the following: […]
# (§7) Assay method B: 2.5 mM-797 nM […]
# (§8) For Assay methods B, E, and G: Compound dilutions were added directly into white, low-volume assay plates (Perkin Elmer Proxiplate 384 Plus#6008280) using a Labcyte Echo in conjunction with Labcyte Access and Thermo Multidrop CombinL robotics. Compounds were then suspended in eight microliters (μL) of assay buffer (20 mM Sodium Phosphate, pH 6.0, 50 mM NaCl, 1 mM Ethylenediaminetetraacetic acid disodium salt dihydrate, 0.01% Triton X-100, 1 mM DL-Dithiothreitol) containing His-tagged bromodomain, Europium-conjugated anti-His antibody (Invitrogen PV5596) and Alexa-647-conjugated probe.
# (§9) The final concentration of 1× assay mixture for assay methods A, B, C, D, E, F, and G contains 2% DMSO, 8 nM His-tagged bromodomain, 1 nM Europium-conjugated anti-His-tag antibody and 100 nM or 30 nM probe (for BDI or BDII, respectively) and compound concentration in the range of: 50 μM-16 nM for method A, 49.02 μM-15.63 nM for method B, 25 μM-423 pM for method C, 10 μM-169 pM for method D, 9.19 μM-150 pM for method E, 5 μM-85 pM for method F, and 0.92 μM-15 pM for method G.
# (§10) After a one-hour equilibration at room temperature, TR-FRET ratios were determined using an Envision multilabel plate reader (Ex 340, Em 495/520).
# (§11) TR-FRET data were normalized to the means of 24 no-compound controls (“high”) and 8 controls containing 1 μM un-labeled probe (“low”). Percent inhibition was plotted as a function of compound concentration and the data were fit with the 4 parameter logistic equation to obtain IC50s. Inhibition constants (Ki) were calculated from the IC50s, probe Kd and probe concentration. Typical Z′ values were between 0.65 and 0.75. The minimum significant ratio was determined to evaluate assay reproducibility (Eastwood et al., (2006) J Biomol Screen, 11: 253-261). The MSR was determined to be 2.03 for BDI and 1.93 for BDII, and a moving MSR (last six run MSR overtime) for both BDI and BDII was typically <3.
# BRD4 (BDII_E352-M457) = molecular target: T2, BRD4 (BDII_E352-M457) (Homo sapiens, UniProt O60885); assay: TR-FRET bromodomain binding assay, second bromodomain of BRD4; settings: 30 nM probe
# T2 construct: protocol; made in house
# Description: as §1, §2, §3, §4, §5, §6, §7, §8, §9, §10, §11
# [1] = TR-FRET assay protocol G (compound 0.92 μM-15 pM)
# [2] = TR-FRET assay protocol E (compound 9.19 μM-150 pM)
Compound,Ki (BRD4 (BDI_K57-E168); [1]),Ki (BRD4 (BDII_E352-M457); [1]),Ki (BRD4 (BDI_K57-E168); [2]),Ki (BRD4 (BDII_E352-M457); [2])
"2-(3-(10-methyl-7-((methylsulfonyl)methyl)-11-oxo-10,11-dihydro-1H-1,4,10-triazadibenzo[cd,f]azulen-4(3H)-yl)pyrrolidin-1-yl)acetic acid [Example 179]",0.0201 µM,0.0807 µM,–,–
"4-(1-ethylpiperidin-3-yl)-10-methyl-7-((methylsulfonyl)methyl)-3,4-dihydro-1H-1,4,10-triazadibenzo[cd,f]azulen-11(10H)-one [Example 190]",0.0267 µM,0.0309 µM,–,–
"4-((1-isopropylpiperidin-4-yl)methyl)-10-methyl-7-((methylsulfonyl)methyl)-3,4-dihydro-1H-1,4,10-triazadibenzo[cd,f]azulen-11(10H)-one [Example 183]",0.00384 µM,0.0155 µM,–,–
"4-([1,1′-biphenyl]−4-ylsulfonyl)-10-methyl-7-((methylsulfonyl)methyl)-3,4-dihydro-1H-1,4,10-triazadibenzo[cd,f]azulen-11(10H)-one [Example 75]",> 0.238 µM,> 0.408 µM,–,–
"7-fluoro-10-methyl-3,4-dihydro-1H-1,4,5,10-tetraazadibenzo[cd,f]azulen-11(10H)-one [Example 38]",> 0.238 µM,> 0.408 µM,–,–
"10-methyl-7-((methylsulfonyl)methyl)-4-(1-((2-(trimethylsilyl)ethoxy)methyl)-1H-indazol-5-yl)-3,4-dihydro-1H-1,4,10-triazadibenzo[cd,f]azulen-11(10H)-one [Example 233]",0.00615 µM,0.00377 µM,–,–
"COC(=O)CCC1Nc2ccc(CS(C)(=O)=O)cc2-c2cn(C)c(=O)c3[nH]cc1c23 (racemic) [Example 17, methyl 3-(10-methyl-7-((methylsulfonyl)methyl)-11-oxo-3,4,10,11-tetrahydro-1H-1,4,10-triazadibenzo[cd,f]azulen-3-yl)propanoate]",–,–,0.165 µM,0.0539 µM
"Cn1cc2c3c(c[nH]c3c1=O)CN(CC1CCOC(C)(C)C1)c1ccc(CS(C)(=O)=O)cc1-2 (racemic) [Example 152, 4-((2,2-dimethyltetrahydro-2H-pyran-4-yl)methyl)-10-methyl-7-((methylsulfonyl)methyl)-3,4-dihydro-1H-1,4,10-triazadibenzo[cd,f]azulen-11(10H)-one]",0.00718 µM,0.011 µM,–,–
"CCOCCC(C)N1Cc2c[nH]c3c(=O)n(C)cc(c23)-c2cc(CS(C)(=O)=O)ccc21 (racemic) [Example 153, 4-(4-ethoxybutan-2-yl)-10-methyl-7-((methylsulfonyl)methyl)-3,4-dihydro-1H-1,4,10-triazadibenzo[cd,f]azulen-11(10H)-one]",0.00372 µM,0.00918 µM,–,–
"Cn1cc2c3c(c[nH]c3c1=O)C(C(=O)NCCC#N)N(c1ccc(F)cc1F)c1ccc(CS(C)(=O)=O)cc1-2 (racemic) [Example 154, N-(2-cyanoethyl)-4-(2,4-difluorophenyl)-10-methyl-7-((methylsulfonyl)methyl)-11-oxo-3,4,10,11-tetrahydro-1H-1,4,10-triazadibenzo[cd,f]azulene-3-carboxamide]",0.0507 µM,0.0531 µM,–,–
"Cn1cc2c3c(c[nH]c3c1=O)C(C(=O)NCCCc1ccccc1)N(c1ccc(F)cc1F)c1ccc(CS(C)(=O)=O)cc1-2 (racemic) [Example 160, 4-(2,4-difluorophenyl)-10-methyl-7-((methylsulfonyl)methyl)-11-oxo-N-(3-phenylpropyl)-3,4,10,11-tetrahydro-1H-1,4,10-triazadibenzo[cd,f]azulene-3-carboxamide]",0.125 µM,0.118 µM,–,–
"Cn1cc2c3c(c[nH]c3c1=O)C(C(=O)NC1(CO)CC1)N(c1ccc(F)cc1F)c1ccc(CS(C)(=O)=O)cc1-2 (racemic) [Example 166, 4-(2,4-difluorophenyl)-N-(1-(hydroxymethyl)cyclopropyl)-10-methyl-7-((methylsulfonyl)methyl)-11-oxo-3,4,10,11-tetrahydro-1H-1,4,10-triazadibenzo[cd,f]azulene-3-carboxamide]",0.06 µM,0.0733 µM,–,–
"Cn1cc2c3c(c[nH]c3c1=O)C(C(=O)NC1(C)CC1)N(c1ccc(F)cc1F)c1ccc(CS(C)(=O)=O)cc1-2 (racemic) [Example 167, 4-(2,4-difluorophenyl)-10-methyl-N-(1-methylcyclopropyl)-7-((methylsulfonyl)methyl)-11-oxo-3,4,10,11-tetrahydro-1H-1,4,10-triazadibenzo[cd,f]azulene-3-carboxamide]",0.0692 µM,0.0763 µM,–,–
"COCCC(C)N1Cc2c[nH]c3c(=O)n(C)cc(c23)-c2cc(CS(C)(=O)=O)ccc21 (racemic) [Example 186, 4-(4-methoxybutan-2-yl)-10-methyl-7-((methylsulfonyl)methyl)-3,4-dihydro-1H-1,4,10-triazadibenzo[cd,f]azulen-11(10H)-one]",0.00421 µM,0.0092 µM,–,–
"CC(C1CCOCC1)N1Cc2c[nH]c3c(=O)n(C)cc(c23)-c2cc(CS(C)(=O)=O)ccc21 (racemic) [Example 188, 10-methyl-7-((methylsulfonyl)methyl)-4-(1-(tetrahydro-2H-pyran-4-yl)ethyl)-3,4-dihydro-1H-1,4,10-triazadibenzo[cd,f]azulen-11(10H)-one]",0.00364 µM,0.00462 µM,–,–
"Cn1cc2c3c(c[nH]c3c1=O)C(Cn1ccccc1=O)N(c1ccc(F)cc1F)c1ccc(CS(C)(=O)=O)cc1-2 (single isomer, unassigned) [Example 251]",> 0.238 µM,0.142 µM,–,–
"COC(=O)CC[C@H]1c2c[nH]c3c(=O)n(C)cc(c23)-c2cc(CS(C)(=O)=O)ccc2N1c1ccc(F)cc1F (single isomer, unassigned) [Example 269]",0.00569 µM,0.00092 µM,–,–
"Cn1cc2c3c(c[nH]c3c1=O)CNc1ccc(S(C)(=O)=O)cc1-2 [Example 4, 10-methyl-7-(methylsulfonyl)-3,4-dihydro-1H-1,4,10-triazadibenzo[cd,f]azulen-11(10H)-one]",–,–,2 µM,3.09 µM
"Cn1cc2c3c(c[nH]c3c1=O)CNc1ccc(CS(C)(=O)=O)cc1-2 [Example 5, 10-methyl-7-((methylsulfonyl)methyl)-3,4-dihydro-1H-1,4,10-triazadibenzo[cd,f]azulen-11(10H)-one]",–,–,0.765 µM,0.758 µM
"CCOC(=O)C1Nc2ncc(F)cc2-c2cn(C)c(=O)c3[nH]cc1c23 (stereo not drawn) [Example 39, ethyl 7-fluoro-10-methyl-11-oxo-3,4,10,11-tetrahydro-1H-1,4,5,10-tetraazadibenzo[cd,f]azulene-3-carboxylate]",> 0.238 µM,> 0.408 µM,–,–
"CCOC(=O)C1c2c[nH]c3c(=O)n(C)cc(c23)-c2cc(C)cnc2N1c1ccc(F)cc1 (stereo not drawn) [Example 43, ethyl 4-(4-fluorophenyl)-7,10-dimethyl-11-oxo-3,4,10,11-tetrahydro-1H-1,4,5,10-tetraazadibenzo[cd,f]azulene-3-carboxylate]",0.00729 µM,0.0247 µM,–,–
"CCCCC(CC)COC(=O)N1Cc2c[nH]c3c(=O)n(C)cc(c23)-c2cc(CS(C)(=O)=O)ccc21 (stereo not drawn) [Example 53, 2-ethylhexyl 10-methyl-7-((methylsulfonyl)methyl)-11-oxo-10,11-dihydro-1H-1,4,10-triazadibenzo[cd,f]azulene-4(3H)-carboxylate]",0.00478 µM,0.0219 µM,–,–
"CC(C)C(=O)N1Cc2c[nH]c3c(=O)n(C)cc(c23)-c2cc(CS(C)(=O)=O)ccc21 [Example 54, 4-isobutyryl-10-methyl-7-((methylsulfonyl)methyl)-3,4-dihydro-1H-1,4,10-triazadibenzo[cd,f]azulen-11(10H)-one]",0.00585 µM,0.00145 µM,–,–
"Cn1cc2c3c(c[nH]c3c1=O)CN(/C=C(/C=C/c1ccccc1)c1ccccc1)c1c(F)cc(F)cc1-2 [Example 57, 4-((1Z,3E)-2,4-diphenylbuta-1,3-dien-1-yl)-5,7-difluoro-10-methyl-3,4-dihydro-1H-1,4,10-triazadibenzo[cd,f]azulen-11(10H)-one]",0.0647 µM,0.0906 µM,–,–
